# Data from patent publication US9326986B2, “Quinazolinone, quinolone and related analogs as sirtuin modulators” (GLAXOSMITHKLINE LLC, priority 2008, dated 2016).
# Molecular target: T1, SIRT1 (Homo sapiens, UniProt Q96EB6)
# T1 sequence (Q96EB6 1-747): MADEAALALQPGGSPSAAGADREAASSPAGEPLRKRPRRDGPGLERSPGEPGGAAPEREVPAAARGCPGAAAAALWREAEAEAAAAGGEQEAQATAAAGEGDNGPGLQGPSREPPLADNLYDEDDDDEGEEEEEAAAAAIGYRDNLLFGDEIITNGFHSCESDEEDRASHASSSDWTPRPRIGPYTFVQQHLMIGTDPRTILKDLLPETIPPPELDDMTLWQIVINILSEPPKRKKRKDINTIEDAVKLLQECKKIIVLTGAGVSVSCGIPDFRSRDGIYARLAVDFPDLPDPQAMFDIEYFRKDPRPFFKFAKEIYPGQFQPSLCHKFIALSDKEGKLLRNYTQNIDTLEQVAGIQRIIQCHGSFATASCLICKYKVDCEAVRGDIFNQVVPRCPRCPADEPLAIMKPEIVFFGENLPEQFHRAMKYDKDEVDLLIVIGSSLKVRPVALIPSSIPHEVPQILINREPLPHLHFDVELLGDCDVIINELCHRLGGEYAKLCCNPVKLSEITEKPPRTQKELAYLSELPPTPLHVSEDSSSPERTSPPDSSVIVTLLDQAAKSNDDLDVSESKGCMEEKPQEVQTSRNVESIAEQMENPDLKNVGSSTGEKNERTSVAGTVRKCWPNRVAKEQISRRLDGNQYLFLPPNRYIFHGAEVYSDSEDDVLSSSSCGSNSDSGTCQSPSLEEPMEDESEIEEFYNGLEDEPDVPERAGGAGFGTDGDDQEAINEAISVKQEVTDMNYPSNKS
# Assay: Mass spectrometry based assay to identify modulators of SIRT1 activity (deacetylation of p53-based acetylated peptide)
# Assay type: biochemical
# Conditions: 10 nM SIRT1, 0.5 μM peptide substrate, 120 μM βNAD+, 25 minutes at 25° C.
# Text: A mass spectrometry based assay was used to identify modulators of SIRT1 activity. The mass spectrometry based assay utilizes a peptide having 20 amino acid residues as follows: Ac-EE-K(biotin)-GQSTSSHSK(Ac)NleSTEG-K(5TMR)-EE-NH2 (SEQ ID NO: 1) wherein K(Ac) is an acetylated lysine residue and Nle is a norleucine. The peptide is labeled with the fluorophore 5TMR (excitation 540 nm/emission 580 nm) at the C-terminus. The sequence of the peptide substrate is based on p53 with several modifications. In addition, the methionine residue naturally present in the sequence was replaced with the norleucine because the methionine may be susceptible to oxidation during synthesis and purification.
# The mass spectrometry assay is conducted as follows: 0.5 μM peptide substrate and 120 μM βNAD^+ is incubated with 10 nM SIRT1 for 25 minutes at 25° C. in a reaction buffer (50 mM Tris-acetate pH 8, 137 mM NaCl, 2.7 mM KCl, 1 mM MgCl2, 5 mM DTT, 0.05% BSA). Test compounds may be added to the reaction as described above. […] After the 25 minute incubation with SIRT1, 10 μL of 10% formic acid is added to stop the reaction. Reactions are sealed and frozen for later mass spec analysis. Determination of the mass of the substrate peptide allows for precise determination of the degree of acetylation (i.e. starting material) as compared to deacetylated peptide (product).
# A control for inhibition of sirtuin activity is conducted by adding 1 μL of 500 mM nicotinamide as a negative control at the start of the reaction (e.g., permits determination of maximum sirtuin inhibition). A control for activation of sirtuin activity is conducted using 10 nM of sirtuin protein, with 1 μL of DMSO in place of compound, to determine the amount of deacetylation of the substrate at a given timepoint within the linear range of the assay. This timepoint is the same as that used for test compounds and, within the linear range, the endpoint represents a change in velocity.
# For the above assay, SIRT1 protein was expressed and purified as follows. […] The protein was expressed by induction with 1 mM IPTG as an N-terminal His-tag fusion protein at 18° C. overnight and harvested at 30,000×g. Cells were lysed with lysozyme in lysis buffer (50 mM Tris-HCl, 2 mM Tris[2-carboxyethyl]phosphine (TCEP), 10 μM ZnCl2, 200 mM NaCl) and further treated with sonication for 10 min for complete lysis. The protein was purified over a Ni-NTA column (Amersham) and fractions containing pure protein were pooled, concentrated and run over a sizing column (Sephadex S200 26/60 global). The peak containing soluble protein was collected and run on an Ion-exchange column (MonoQ). Gradient elution (200 mM-500 mM NaCl) yielded pure protein. This protein was concentrated and dialyzed against dialysis buffer (20 mM Tris-HCl, 2 mM TCEP) overnight. The protein was aliquoted and frozen at −80° C. until further use.
# Sirtuin modulating compounds that activated SIRT1 were identified using the assay described above and are shown below in Tables 1 and 2. The EC1.5 values for the activating compounds are represented by A (EC1.5<1.0 μM), B (EC1.5 1-25 μM), C (EC1.5>25 μM). The percent maximum fold activation is represented by A (Fold activation>200%) or B (Fold Activation<200%).
row,% Fold Act. (percent maximum fold activation),SMILES
1,A (Fold activation>200%),Cn1c(-c2cccc(C(F)(F)F)c2)nc2c(NC(=O)c3ccncn3)cccc2c1=O [Compound 245]
2,A (Fold activation>200%),Cn1cnc(C(=O)Nc2cccc3c(=O)n(C)c(-c4cccc(C(F)(F)F)c4)nc23)c1 [Compound 246]
3,B (Fold Activation<200%),Cn1ccc(C(=O)Nc2cccc3c(=O)n(C)c(-c4cccc(C(F)(F)F)c4)nc23)n1 [Compound 247]
4,A (Fold activation>200%),Cn1nccc1C(=O)Nc1cccc2c(=O)n(C)c(-c3cccc(C(F)(F)F)c3)nc12 [Compound 248]
5,A (Fold activation>200%),Cn1c(-c2cccc(C(F)(F)F)c2)nc2c(NC(=O)c3ncccn3)cccc2c1=O [Compound 249]
6,B (Fold Activation<200%),Cn1c(-c2cccc(C(F)(F)F)c2)nc2c(NC(=O)c3cocn3)cccc2c1=O [Compound 250]
7,B (Fold Activation<200%),Cn1c(-c2ccc(C(F)(F)F)cc2)nc2c(NC(=O)c3cnccn3)cccc2c1=O [Compound 251]
8,B (Fold Activation<200%),Cn1c(-c2ccc(OC(F)(F)F)cc2)nc2c(NC(=O)c3cnccn3)cccc2c1=O [Compound 252]
9,B (Fold Activation<200%),Cn1c(-c2cccc(C#N)c2)nc2c(C(=O)Nc3ccccn3)cccc2c1=O [Compound 253]
10,B (Fold Activation<200%),Cn1c(-c2ccc(C#N)cc2)nc2c(C(=O)Nc3ccccn3)cccc2c1=O [Compound 254]
11,B (Fold Activation<200%),Cn1c(-c2ccccn2)nc2c(C(=O)Nc3ccccn3)cccc2c1=O [Compound 255]
12,B (Fold Activation<200%),Cn1c(-c2cccnc2)nc2c(C(=O)Nc3ccccn3)cccc2c1=O [Compound 256]
13,B (Fold Activation<200%),Cn1c(-c2ccncn2)nc2c(C(=O)Nc3ccccn3)cccc2c1=O [Compound 257]
14,B (Fold Activation<200%),Cn1c(-c2cnccn2)nc2c(C(=O)Nc3ccccn3)cccc2c1=O [Compound 258]
15,B (Fold Activation<200%),Cn1c(-c2ncccn2)nc2c(C(=O)Nc3ccccn3)cccc2c1=O [Compound 259]
16,B (Fold Activation<200%),Cn1c(-c2cncnc2)nc2c(C(=O)Nc3ccccn3)cccc2c1=O [Compound 260]
17,B (Fold Activation<200%),Cn1cnc(-c2nc3c(C(=O)Nc4ccccn4)cccc3c(=O)n2C)c1 [Compound 261]
18,B (Fold Activation<200%),Cn1cncc1-c1nc2c(C(=O)Nc3ccccn3)cccc2c(=O)n1C [Compound 262]
19,B (Fold Activation<200%),Cn1cc(-c2nc3c(C(=O)Nc4ccccn4)cccc3c(=O)n2C)cn1 [Compound 263]
20,B (Fold Activation<200%),Cn1nccc1-c1nc2c(C(=O)Nc3ccccn3)cccc2c(=O)n1C [Compound 264]
21,A (Fold activation>200%),Cn1c(-c2cccc(C(F)(F)F)c2)nc2c(C(=O)Nc3cccnc3)cccc2c1=O [Compound 265]
22,A (Fold activation>200%),Cn1c(-c2cccc(C(F)(F)F)c2)nc2c(C(=O)Nc3ccncc3)cccc2c1=O [Compound 266]
23,A (Fold activation>200%),CC(C)n1c(-c2cccc(C(F)(F)F)c2)nc2c(NC(=O)c3cnccn3)cccc2c1=O [Compound 267]
24,B (Fold Activation<200%),Cn1cc(C(=O)Nc2cccc3c(=O)n(C)c(-c4cccc(C(F)(F)F)c4)nc23)cn1 [Compound 268]
25,B (Fold Activation<200%),CCn1c(-c2cccc(C(F)(F)F)c2)nc2c(C(=O)Nc3ccccn3)cccc2c1=O [Compound 269]
26,B (Fold Activation<200%),CCCn1c(-c2cccc(C(F)(F)F)c2)nc2c(C(=O)Nc3ccccn3)cccc2c1=O [Compound 270]
27,B (Fold Activation<200%),CC(C)Cn1c(-c2cccc(C(F)(F)F)c2)nc2c(C(=O)Nc3ccccn3)cccc2c1=O [Compound 271]
28,B (Fold Activation<200%),O=C(Nc1ccccn1)c1cccc2c(=O)n(CCN3CCCC3)c(-c3cccc(C(F)(F)F)c3)nc12 [Compound 272]
29,A (Fold activation>200%),Cn1c(-c2cccc(C(F)(F)F)c2)nc2c(C(=O)Nc3ccc(OCC(O)CO)cc3)cccc2c1=O (stereo not shown) [Compound 273]

# Same assay, conditions: SIRT1 activation; 10 nM SIRT1, 0.5 μM peptide substrate, 120 μM βNAD+, 25 minutes at 25° C.
row,EC1.5 μM,SMILES
1,A (EC1.5<1.0 μM),Cn1c(-c2cccc(C(F)(F)F)c2)nc2c(NC(=O)c3ccncn3)cccc2c1=O [Compound 245]
2,A (EC1.5<1.0 μM),Cn1cnc(C(=O)Nc2cccc3c(=O)n(C)c(-c4cccc(C(F)(F)F)c4)nc23)c1 [Compound 246]
3,B (EC1.5 1-25 μM),Cn1ccc(C(=O)Nc2cccc3c(=O)n(C)c(-c4cccc(C(F)(F)F)c4)nc23)n1 [Compound 247]
4,A (EC1.5<1.0 μM),Cn1nccc1C(=O)Nc1cccc2c(=O)n(C)c(-c3cccc(C(F)(F)F)c3)nc12 [Compound 248]
5,A (EC1.5<1.0 μM),Cn1c(-c2cccc(C(F)(F)F)c2)nc2c(NC(=O)c3ncccn3)cccc2c1=O [Compound 249]
6,C (EC1.5>25 μM),Cn1c(-c2cccc(C(F)(F)F)c2)nc2c(NC(=O)c3cocn3)cccc2c1=O [Compound 250]
7,B (EC1.5 1-25 μM),Cn1c(-c2ccc(C(F)(F)F)cc2)nc2c(NC(=O)c3cnccn3)cccc2c1=O [Compound 251]
8,C (EC1.5>25 μM),Cn1c(-c2ccc(OC(F)(F)F)cc2)nc2c(NC(=O)c3cnccn3)cccc2c1=O [Compound 252]
9,C (EC1.5>25 μM),Cn1c(-c2cccc(C#N)c2)nc2c(C(=O)Nc3ccccn3)cccc2c1=O [Compound 253]
10,C (EC1.5>25 μM),Cn1c(-c2ccc(C#N)cc2)nc2c(C(=O)Nc3ccccn3)cccc2c1=O [Compound 254]
11,C (EC1.5>25 μM),Cn1c(-c2ccccn2)nc2c(C(=O)Nc3ccccn3)cccc2c1=O [Compound 255]
12,C (EC1.5>25 μM),Cn1c(-c2cccnc2)nc2c(C(=O)Nc3ccccn3)cccc2c1=O [Compound 256]
13,C (EC1.5>25 μM),Cn1c(-c2ccncn2)nc2c(C(=O)Nc3ccccn3)cccc2c1=O [Compound 257]
14,C (EC1.5>25 μM),Cn1c(-c2cnccn2)nc2c(C(=O)Nc3ccccn3)cccc2c1=O [Compound 258]
15,C (EC1.5>25 μM),Cn1c(-c2ncccn2)nc2c(C(=O)Nc3ccccn3)cccc2c1=O [Compound 259]
16,C (EC1.5>25 μM),Cn1c(-c2cncnc2)nc2c(C(=O)Nc3ccccn3)cccc2c1=O [Compound 260]
17,C (EC1.5>25 μM),Cn1cnc(-c2nc3c(C(=O)Nc4ccccn4)cccc3c(=O)n2C)c1 [Compound 261]
18,C (EC1.5>25 μM),Cn1cncc1-c1nc2c(C(=O)Nc3ccccn3)cccc2c(=O)n1C [Compound 262]
19,C (EC1.5>25 μM),Cn1cc(-c2nc3c(C(=O)Nc4ccccn4)cccc3c(=O)n2C)cn1 [Compound 263]
20,C (EC1.5>25 μM),Cn1nccc1-c1nc2c(C(=O)Nc3ccccn3)cccc2c(=O)n1C [Compound 264]
21,B (EC1.5 1-25 μM),Cn1c(-c2cccc(C(F)(F)F)c2)nc2c(C(=O)Nc3cccnc3)cccc2c1=O [Compound 265]
22,B (EC1.5 1-25 μM),Cn1c(-c2cccc(C(F)(F)F)c2)nc2c(C(=O)Nc3ccncc3)cccc2c1=O [Compound 266]
23,A (EC1.5<1.0 μM),CC(C)n1c(-c2cccc(C(F)(F)F)c2)nc2c(NC(=O)c3cnccn3)cccc2c1=O [Compound 267]
24,C (EC1.5>25 μM),Cn1cc(C(=O)Nc2cccc3c(=O)n(C)c(-c4cccc(C(F)(F)F)c4)nc23)cn1 [Compound 268]
25,B (EC1.5 1-25 μM),CCn1c(-c2cccc(C(F)(F)F)c2)nc2c(C(=O)Nc3ccccn3)cccc2c1=O [Compound 269]
26,C (EC1.5>25 μM),CCCn1c(-c2cccc(C(F)(F)F)c2)nc2c(C(=O)Nc3ccccn3)cccc2c1=O [Compound 270]
27,B (EC1.5 1-25 μM),CC(C)Cn1c(-c2cccc(C(F)(F)F)c2)nc2c(C(=O)Nc3ccccn3)cccc2c1=O [Compound 271]
28,B (EC1.5 1-25 μM),O=C(Nc1ccccn1)c1cccc2c(=O)n(CCN3CCCC3)c(-c3cccc(C(F)(F)F)c3)nc12 [Compound 272]
29,A (EC1.5<1.0 μM),Cn1c(-c2cccc(C(F)(F)F)c2)nc2c(C(=O)Nc3ccc(OCC(O)CO)cc3)cccc2c1=O (stereo not shown) [Compound 273]
